From ChEMBL document CHEMBL5029175, “Discovery of MK-4688: an Efficient Inhibitor of the HDM2-p53 Protein-Protein Interaction” (J Med Chem, 2021)

What was measured:
[1] = biological target: E3 ubiquitin-protein ligase Mdm2 (Homo sapiens, UniProt Q00987); assay: Binding affinity to HDM2 (unknown origin)
[2] = Lipophilicity, logD of the compound at pH 7 by RP-HPLC analysis; format: physicochemical; conditions: buffer
[3] = Toxicity in CD-1 mouse xenografted with human SJSA-1 cells assessed as body weight loss at 50 to 100 mg/kg, po administered once daily for 7 consecutive days followed by 2 weeks off dosing schedule; format: organism-based; conditions: in vivo, 504 h, dose 50-100 mg/kg, time 3 weeks
[4] = Volume of distribution in dog at 0.5 mg/kg, po or 0.25 mg/kg, iv; format: ADME, organism-based, Canis lupus familiaris; conditions: in vivo
[5] = Intrinsic clearance in human hepatocytes; format: ADME, cell-based, Hepatocyte; conditions: read-out: CLH
[6] = Volume of distribution in rat at 1 mg/kg, po or 0.5 mg/kg, iv; format: ADME, organism-based; conditions: in vivo
[7] = Unbound clearance in dog; format: ADME, Canis lupus familiaris; conditions: in vivo
Cytochrome P450 3A4 [8] = biological target: T1, Cytochrome P450 3A4 (Homo sapiens, UniProt P08684); assay: Activation of CYP3A4 (unknown origin); format: ADME
T1 sequence (P08684 whole entry): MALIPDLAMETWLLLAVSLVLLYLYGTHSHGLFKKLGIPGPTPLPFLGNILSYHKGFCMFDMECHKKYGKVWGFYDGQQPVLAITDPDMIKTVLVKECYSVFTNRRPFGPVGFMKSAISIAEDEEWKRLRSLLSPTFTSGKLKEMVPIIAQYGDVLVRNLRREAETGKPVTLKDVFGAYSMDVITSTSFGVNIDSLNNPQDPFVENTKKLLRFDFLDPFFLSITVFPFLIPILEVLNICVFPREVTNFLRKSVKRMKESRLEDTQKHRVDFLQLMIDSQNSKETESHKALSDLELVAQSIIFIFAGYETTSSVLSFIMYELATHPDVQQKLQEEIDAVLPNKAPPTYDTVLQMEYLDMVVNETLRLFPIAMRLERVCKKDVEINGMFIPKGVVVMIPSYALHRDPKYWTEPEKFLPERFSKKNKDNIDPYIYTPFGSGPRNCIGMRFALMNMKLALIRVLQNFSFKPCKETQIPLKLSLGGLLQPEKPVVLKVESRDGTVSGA

[9] = Plasma protein binding in human; format: ADME, cell-free; conditions: read-out: PPB (converted)
[10] = Mean residence time in rat; format: ADME; conditions: in vivo
[11] = Bioavailability in rat at 1 mg/kg, po or 0.5 mg/kg, iv; format: ADME, organism-based; conditions: in vivo
[12] = Intrinsic Clearance in rhesus monkey hepatocytes; format: ADME, cell-based, Macaca mulatta, Hepatocyte; conditions: read-out: CLH
Cytochrome P450 2C8 = biological target: T2, Cytochrome P450 2C8 (Homo sapiens, UniProt P10632); assay: Inhibition of CYP2C8 (unknown origin); format: ADME
T2 sequence (P10632 whole entry): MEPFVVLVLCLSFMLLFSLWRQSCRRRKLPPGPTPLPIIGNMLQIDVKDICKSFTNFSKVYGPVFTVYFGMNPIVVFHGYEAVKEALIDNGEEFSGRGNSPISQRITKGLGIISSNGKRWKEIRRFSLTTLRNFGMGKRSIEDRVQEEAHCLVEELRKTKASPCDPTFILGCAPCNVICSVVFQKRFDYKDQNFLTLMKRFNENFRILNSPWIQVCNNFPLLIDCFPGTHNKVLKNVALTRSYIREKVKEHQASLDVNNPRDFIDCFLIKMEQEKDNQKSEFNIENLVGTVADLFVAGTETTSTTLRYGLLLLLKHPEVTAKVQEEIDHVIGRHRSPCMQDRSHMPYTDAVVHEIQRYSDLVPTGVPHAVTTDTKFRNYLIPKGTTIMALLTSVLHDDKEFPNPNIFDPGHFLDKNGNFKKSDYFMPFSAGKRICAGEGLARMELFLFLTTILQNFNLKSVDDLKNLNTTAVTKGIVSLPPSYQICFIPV

[13] = Unbound clearance in rat; format: ADME; conditions: in vivo
[14] = Clearance in dog plasma at 0.5 mg/kg, po or 0.25 mg/kg, iv; format: ADME, organism-based, Canis lupus familiaris
HCT-116 = assay: cells; conditions: Homo sapiens, HCT-116, 72 h
[15] = Terminal half life in rat at 1 mg/kg, po or 0.5 mg/kg, iv; format: ADME, organism-based; conditions: in vivo, read-out: beta t1/2 (converted)
[16] = Bioavailability in dog at 0.5 mg/kg, po or 0.25 mg/kg, iv; format: ADME, organism-based, Canis lupus familiaris; conditions: in vivo
[17] = Bioavailability in dog; format: ADME, organism-based, Canis lupus familiaris; conditions: in vivo
[18] = Mean residence time in dog; format: ADME, Canis lupus familiaris; conditions: in vivo
SJSA-1 = assay: Antitumor activity against human SJSA-1 cells xenografted in po dosed CD-1 nu/nu mouse assessed as tumor growth inhibition administered once daily for 7 consecutive days followed by 2 weeks off dosing schedule; format: functional, organism-based; conditions: time 3.0 weeks
Mus musculus = assay: In vivo activation of p53 pathway in human SJSA-1 cells xenografted in po dosed CD-1 nu/nu mouse assessed as induction of p21 mRNA expression measured after 6 hrs; format: functional, organism-based; conditions: dose 100.0 mg/kg
[19] = Volume of distribution in rhesus monkey at 0.5 mg/kg, iv; format: ADME, organism-based, Macaca mulatta; conditions: in vivo
Cytochrome P450 3A4 [20] = biological target: T1, Cytochrome P450 3A4; assay: Inhibition of CYP3A4 (unknown origin); format: ADME
[21] = Terminal half life in dog at 0.5 mg/kg, po or 0.25 mg/kg, iv; format: ADME, organism-based, Canis lupus familiaris; conditions: in vivo, read-out: beta t1/2 (converted)
[22] = Intrinsic clearance in rat hepatocytes; format: ADME, cell-based, Hepatocyte; conditions: read-out: CLH
[23] = Terminal half life in rhesus monkey at 0.5 mg/kg, iv; format: ADME, organism-based, Macaca mulatta; conditions: in vivo, read-out: beta t1/2 (converted)
[24] = Clearance in rhesus monkey plasma at 0.5 mg/kg, iv; format: ADME, organism-based, Macaca mulatta
Cytochrome P450 2D6 = Cytochrome P450 2D6 (Homo sapiens, UniProt P10635); assay: Inhibition of CYP2D6 (unknown origin); format: ADME
Cytochrome P450 2D6, sequence (P10635 whole entry): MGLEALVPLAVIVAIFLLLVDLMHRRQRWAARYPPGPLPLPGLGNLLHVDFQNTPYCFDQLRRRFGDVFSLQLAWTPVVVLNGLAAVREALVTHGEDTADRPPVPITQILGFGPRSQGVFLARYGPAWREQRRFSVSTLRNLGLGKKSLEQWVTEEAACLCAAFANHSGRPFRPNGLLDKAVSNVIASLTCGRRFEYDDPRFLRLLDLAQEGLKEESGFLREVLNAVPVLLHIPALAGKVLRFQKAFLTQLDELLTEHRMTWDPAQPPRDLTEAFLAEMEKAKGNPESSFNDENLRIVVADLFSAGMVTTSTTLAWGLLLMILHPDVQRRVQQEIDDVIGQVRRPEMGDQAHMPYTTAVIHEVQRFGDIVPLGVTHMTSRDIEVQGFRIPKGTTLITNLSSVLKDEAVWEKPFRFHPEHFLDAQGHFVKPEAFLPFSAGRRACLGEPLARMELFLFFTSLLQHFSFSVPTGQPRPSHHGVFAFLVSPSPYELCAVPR

[25] = Plasma protein binding in rhesus monkey; format: ADME, cell-free, Macaca mulatta; conditions: read-out: PPB (converted)
Cytochrome P450 2C9 = Cytochrome P450 2C9 (Homo sapiens, UniProt P11712); assay: Inhibition of CYP2C9 (unknown origin); format: ADME
Cytochrome P450 2C9, sequence (P11712 whole entry): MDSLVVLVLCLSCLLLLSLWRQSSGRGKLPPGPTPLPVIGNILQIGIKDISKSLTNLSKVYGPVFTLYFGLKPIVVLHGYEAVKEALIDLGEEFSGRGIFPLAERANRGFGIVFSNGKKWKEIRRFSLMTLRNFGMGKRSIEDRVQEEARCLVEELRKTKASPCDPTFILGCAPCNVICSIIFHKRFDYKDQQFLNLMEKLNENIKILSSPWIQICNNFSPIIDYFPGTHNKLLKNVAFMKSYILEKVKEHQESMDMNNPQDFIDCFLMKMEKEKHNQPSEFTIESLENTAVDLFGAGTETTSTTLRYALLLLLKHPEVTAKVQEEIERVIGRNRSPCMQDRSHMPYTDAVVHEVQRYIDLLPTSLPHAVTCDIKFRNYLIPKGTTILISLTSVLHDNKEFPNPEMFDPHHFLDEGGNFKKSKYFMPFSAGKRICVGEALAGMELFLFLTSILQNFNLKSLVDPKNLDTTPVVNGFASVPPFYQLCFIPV

[26] = Plasma protein binding in dog; format: ADME, cell-free, Canis lupus familiaris; conditions: read-out: PPB (converted)
[27] = biological target: Voltage-gated inwardly rectifying potassium channel KCNH2 (Homo sapiens, UniProt Q12809); assay: Inhibition of human ERG
Voltage-gated inwardly rectifying potassium channel KCNH2, sequence (Q12809 whole entry): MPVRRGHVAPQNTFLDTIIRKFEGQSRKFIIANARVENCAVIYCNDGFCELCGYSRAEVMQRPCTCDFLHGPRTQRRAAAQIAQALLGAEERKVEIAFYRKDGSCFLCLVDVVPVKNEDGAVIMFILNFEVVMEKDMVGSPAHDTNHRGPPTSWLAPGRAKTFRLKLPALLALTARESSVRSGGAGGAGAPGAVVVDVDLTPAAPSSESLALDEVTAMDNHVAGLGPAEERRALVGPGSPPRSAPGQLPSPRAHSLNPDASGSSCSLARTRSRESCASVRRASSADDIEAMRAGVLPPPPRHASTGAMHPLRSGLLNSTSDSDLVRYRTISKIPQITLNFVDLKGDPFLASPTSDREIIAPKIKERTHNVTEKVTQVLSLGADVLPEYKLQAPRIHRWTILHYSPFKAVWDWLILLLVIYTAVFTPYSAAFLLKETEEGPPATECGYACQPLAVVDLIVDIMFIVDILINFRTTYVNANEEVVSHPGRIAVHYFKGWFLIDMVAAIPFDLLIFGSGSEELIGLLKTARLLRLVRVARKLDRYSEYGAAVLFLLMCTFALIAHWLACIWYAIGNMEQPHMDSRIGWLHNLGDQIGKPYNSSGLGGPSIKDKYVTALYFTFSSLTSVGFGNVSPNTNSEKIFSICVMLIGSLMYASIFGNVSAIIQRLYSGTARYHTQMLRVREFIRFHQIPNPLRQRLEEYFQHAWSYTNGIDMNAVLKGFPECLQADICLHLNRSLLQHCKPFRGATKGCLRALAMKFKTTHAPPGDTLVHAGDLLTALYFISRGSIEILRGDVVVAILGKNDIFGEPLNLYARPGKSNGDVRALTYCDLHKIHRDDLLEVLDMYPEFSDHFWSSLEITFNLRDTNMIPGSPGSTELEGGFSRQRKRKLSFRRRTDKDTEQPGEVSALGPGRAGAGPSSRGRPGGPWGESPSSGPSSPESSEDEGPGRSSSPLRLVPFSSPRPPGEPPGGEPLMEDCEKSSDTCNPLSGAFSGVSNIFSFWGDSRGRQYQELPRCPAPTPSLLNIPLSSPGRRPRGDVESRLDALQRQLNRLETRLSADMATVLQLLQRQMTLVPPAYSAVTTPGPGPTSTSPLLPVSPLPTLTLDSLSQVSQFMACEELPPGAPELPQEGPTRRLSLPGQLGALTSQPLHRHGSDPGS

[28] = Clearance in rat plasma at 1 mg/kg, po or 0.5 mg/kg, iv; format: ADME, organism-based
[29] = Intrinsic clearance in dog hepatocytes; format: ADME, cell-based, Canis lupus familiaris, Hepatocyte; conditions: read-out: CLH
[30] = Bioavailability in rat; format: ADME, organism-based; conditions: in vivo
[31] = Plasma protein binding in rat; format: ADME, cell-free; conditions: read-out: PPB (converted)
[32] = Clearance in rat plasma; format: ADME, cell-free
[33] = Selectivity index, ratio of IC50 for inhibition of HDM2/p53 interaction in human HCT-116 cells expressing p53/Bla to IC50 for inhibition of N-terminal thioredoxin-His6 tagged HDM2 (17 to 125 residues)/p53 protein-protein interaction (unknown origin); format: cell-based
[34] = Oral bioavailability in rat; format: ADME, organism-based; conditions: in vivo
[35] = biological target: Tumour suppressor p53/oncoprotein Mdm2 (Homo sapiens, UniProt Q00987); assay: Inhibition of HDM2/p53 interaction in human HCT-116 cells expressing p53RE/Bla incubated for 16 hrs by beta-lactamase reporter gene assay; format: cell-based
Tumour suppressor p53/oncoprotein Mdm2, sequence (P04637 whole entry): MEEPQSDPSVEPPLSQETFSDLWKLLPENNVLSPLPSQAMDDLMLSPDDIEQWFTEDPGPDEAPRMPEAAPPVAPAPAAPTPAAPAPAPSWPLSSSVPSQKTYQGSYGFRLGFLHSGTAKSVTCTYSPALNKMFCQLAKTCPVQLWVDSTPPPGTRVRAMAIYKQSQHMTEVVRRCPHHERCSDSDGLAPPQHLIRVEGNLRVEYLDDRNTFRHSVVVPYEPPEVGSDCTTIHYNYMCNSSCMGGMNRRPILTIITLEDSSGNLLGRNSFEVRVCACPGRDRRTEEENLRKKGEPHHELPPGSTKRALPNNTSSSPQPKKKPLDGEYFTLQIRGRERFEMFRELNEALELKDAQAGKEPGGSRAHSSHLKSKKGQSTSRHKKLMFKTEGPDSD
Tumour suppressor p53/oncoprotein Mdm2, sequence (Q00987 whole entry): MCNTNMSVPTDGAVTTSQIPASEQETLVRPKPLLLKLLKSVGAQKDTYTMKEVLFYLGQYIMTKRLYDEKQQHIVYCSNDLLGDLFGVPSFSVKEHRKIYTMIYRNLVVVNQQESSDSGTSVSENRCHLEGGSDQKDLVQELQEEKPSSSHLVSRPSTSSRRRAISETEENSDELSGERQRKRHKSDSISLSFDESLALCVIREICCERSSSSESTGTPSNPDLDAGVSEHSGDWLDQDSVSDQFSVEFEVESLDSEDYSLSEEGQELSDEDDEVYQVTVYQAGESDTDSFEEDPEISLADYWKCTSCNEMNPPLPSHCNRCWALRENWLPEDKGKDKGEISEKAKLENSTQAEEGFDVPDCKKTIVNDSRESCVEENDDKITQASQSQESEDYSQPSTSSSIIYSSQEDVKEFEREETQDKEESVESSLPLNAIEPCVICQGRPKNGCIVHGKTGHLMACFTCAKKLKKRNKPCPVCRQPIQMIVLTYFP

E3 ubiquitin-protein ligase Mdm2, sequence (Q00987 whole entry): as above

## CCC[C@H]1N(C(=O)c2ncccc2C(F)(F)F)CCC[C@@]1(Oc1csc(C(F)(F)F)c1)C(=O)N1CCC(O)(c2ccccc2O[C@H](C)CCC2(C(=O)O)CCC2)CC1
[1]
  Kd: 3.8 nM

## C[C@H]1CC[C@H](Cn2c(N3CCO[C@@H]4CCC[C@H]43)nc3cc(-c4noc(=O)[nH]4)nc(-c4cncc(Cl)c4)c32)CC1
[2]
  logD: 2.46
[3]
  Activity: Non-Toxic
[4]
  Vd: 0.39 L/kg
[5]
  CLint scaled: 58 mL/min/kg
[6]
  Vd: 1.3 L/kg
[7]
  CL free: 122 mL/min/kg
Cytochrome P450 3A4 [8]
  EC50: > 30000 nM
[9]
  fraction unbound: 0.008
[10]
  MRT: 0.6 h
[11]
  bioavailability: 24%
[12]
  CLint scaled: 70 mL/min/kg
Cytochrome P450 2C8
  IC50: 800 nM
[13]
  CL free: 5214 mL/min/kg
[14]
  clearance: 1.4 mL/min/kg
HCT-116
  IC50: 122 nM
[15]
  half-life: 3 h
[16]
  bioavailability: 86%
[17]
  bioavailability: 86%
[18]
  MRT: 5.9 h
SJSA-1
  Activity: Dose-Dependent Effect
Mus musculus
  Activity: Dose-Dependent Effect
[19]
  Vd: 0.91 L/kg
Cytochrome P450 3A4 [20]
  IC50: > 50000 nM
[21]
  half-life: 4.2 h
[22]
  CLint scaled: 251 mL/min/kg
[23]
  half-life: 1.6 h
[24]
  clearance: 12.4 mL/min/kg
Cytochrome P450 2D6
  IC50: > 50000 nM
[25]
  fraction unbound: 0.006
Cytochrome P450 2C9
  IC50: 31000 nM
[26]
  fraction unbound: 0.009
[27]
  IC50: 12000 nM
[28]
  clearance: 36 mL/min/kg
[29]
  CLint scaled: 78 mL/min/kg
[30]
  bioavailability: 24%
[31]
  fraction unbound: 0.007

## C[C@@H](Nc1nc(-c2noc(=O)[nH]2)nc2nc(N3CCOC[C@H]3c3ccccc3)n(C[C@H]3CC[C@H](C)CC3)c12)C1CCC1
[2]
  logD: 3.27
[10]
  MRT: 0.73 h
HCT-116
  IC50: 446 nM
[32]
  clearance: 73 mL/min/kg
[33]
  Ratio IC50: 100
[34]
  bioavailability: 2%
[35]
  IC50: 64 nM
